Data published in patent US20230241226A1, “COMPOUNDS FOR TARGETED DEGRADATION OF CARRIER PROTEINS AND USES THEREOF” (CeMM - Forschungszentrum für Molekulare Medizin GmbH, priority 2019, published 2023).
Residues, ends and D or L forms follow the SMILES beside them. *: point of attachment. Cbz = O=C(OCc1ccccc1)*

Tests used:
[1] = test system: dTAG-HA SLCs; assay: dTAG-driven SLC degradation, statements across SLCs (temporal control, chemical rescue); format: cell-based, human; conditions: HAP1; 0.5 µM dTAG7 12 or 18 hours; MLN4924 1 µM, pomalidomide 10 µM, bortezomib 1 µM, MG-132 1 µM, bafilomycin A1 2.5 µM
Procedure: (D)Chemical “rescue” of dTAG-driven degradation of SLCs. HAP1 cell lines expressing dTAG-HA SLC1A5 or dTAG-HA SLC38A9 were treated with 0.5 µM dTAG7 for 12 or 18 hours, respectively. These cells were also treated with chloroquine (CQ, 50 µM), bortezomib (bort., 1 µM), MG-132 (MG, 1 µM), MLN4924 (MLN, 1 µM), pomalidomide (poma., 10 µM), or bafilomycin A1 (bafi., 2.5 µM). SLC degradation was rescued by inhibiting CRL activity or the proteasome, but not by inhibiting the lysosome machinery.
Western blotting with antibodies against the HA-tag and the total protein mirrored the observed pattern.
(D) Chemical “rescue” of dTAG driven degradation. HAP1 cell lines expressing dTAGHA SLC2A3, 39A7, […], and MTCH2 were treated with 0.5 µM dTAG7 for 12 hours. A cell line expressing dTAG-HA SLC38A2 was treated with 0.5 µM dTAG7 for 18 hours. These cells were treated with MLN4924 (MLN, 1 µM), pomalidomide (poma., 10 µM), or bafilomycin A1 (bafi., 2.5 µM) to monitor the inhibition of degradation.
(§1) For immunoblotting, whole cell extracts were prepared using RIPA lysis buffer (25 mM Tris/HCl pH 7.6, 150 mM NaCl, 1% NP-40, 1% sodium deoxycholate, 0.1% SDS, EDTA-free protease inhibitor (Roche) and phosphatase inhibitors 2+3 (Sigma- Aldrich)). Cell extracts were incubated for 15 min on ice in 50 µL RIPA buffer. Lysates were cleared by centrifugation (20,000 g, 10 min, 4° C.). Protein extracts were quantified and normalized using the BCA assay (Thermo Scientific). Where indicated, cleared lysates where treated with the enzyme PNGase (NEB) to deglycosylate the proteins. Lämmli Sample Buffer 4x was added to protein extract samples without boiling. Cell lysates were run on SDS-polyacrylamide gel in tris-glycine running buffer and transferred to nitrocellulose membranes Amersham Protran 0.45 µm (GE Healthcare), according to standard methods. The membranes were incubated with the antibodies indicated below and visualized with horseradish peroxidase-conjugated secondary antibodies (described below) using the ECL Western blotting system (Thermo Scientific). The following antibodies were used: GAPDH (Santa Cruz, sc-365062), Actin (Cyoskeleton Inc., #AAN01), HA (Covance, cat #MMS-101R), HA (Cell Signaling, #3724), HA7-HRP (Sigma, H6533), HA (Roche, #11867423001), SLC9A1 (Santa Cruz, sc-136239), SLC2A1 (Cell Signaling, #12939), SLC38A1 (Cell Signaling, #36057). Secondary antibody for imaging goat anti-Rat IgG Alexa Fluor 488 (ThermoFisher, A11006). The following secondary antibodies were used for immunoblotting: goat anti-mouse HRP (115-035-003, Jackson ImmunoResearch) and goat anti-rabbit HRP (111-035-003, Jackson ImmunoResearch).
SLCs were ectopically expressed as fusions to a mutated FKBP domain, also known as the dTAG system. In brief, a dTAGed protein is amenable to degradation by specific chimeric degrader molecules (e.g. dTAG7/dTAG13) that simultaneously bind to the dTAG and the CRL4CRBN E3 ligase, inducing molecular proximity and ensuing degradation by the proteasome. Given that SLCs were expressed in all cellular compartments, the amenability of differentially located SLCs to targeted proteolysis was tested (FIG. 1A, upper graph). Each of the tested SLCs was stably expressed in HAP1 cells, and subcellular localization was assessed by immunofluorescence microscopy (FIG. 1B). In detail, SLCs located at the cell surface (SLC1A5, SLC38A1, SLC2A1, SLC2A3, SLC16A1, SLC4A4, SLC7A3), cell surface and vesicles (SLC38A2), lysosome (SLC38A9), Golgi (SLC35B2, SLC33A1), mitochondria (SLC25A26, SLC25A1, and MTCH2) and endoplasmic reticulum (SLC39A7, SLC30A9) were assayed. Cellular treatment with a specific degrader molecule (dTAG7 or dTAG13) led to identification of SLCs expressed at cell surface, endoplasmic reticulum and lysosome that were amenable to targeted degradation (FIGS. 1C, 5A). The dTAG could be placed on either N- or C-terminus of the SLC, if both face the cytoplasm (FIG. 5B), as exemplified by SLC2A3. […]

[2] = molecular target: T1, SLC9A1 (Homo sapiens, UniProt P19634); assay: Degradation of endogenous SLC9A1 (immunoblot); format: cell-based; conditions: WT KBM7; 0.5 µM d9A1-2 16 hours; bortezomib 0.25 µM, MG-132 1 µM, MLN4924 1 µM, pomalidomide 1 µM, bafilomycin A1 10 µM
T1 construct: endogenous in cells; host or cells: HAP1, KBM7 (WT and CRBN knockout)
Procedure: (B) HAP1 and KBM7 cells were treated with different concentrations of d9A1-2.
(C)Both WT and CRBN knockout KBM7 cell lines were treated with 1 µM d9A1-2 for 16 hours.
(D) Chemical “rescue” of d9A1-2 driven degradation. WT KBM7 cell lines were treated with 0.5 µM d9A1-2 for 16 hours. These cells were also treated with bortezomib (bort. 0.25 µM), MG-132 (MG, 1 µM), MLN4924 (MLN,1 µM), pomalidomide (poma., 1 µM), or bafilomycin A1 (bafi., 10 µM). All molecules, apart from bafilomycin, could rescue SLC9A1 from degradation.
(B) HAP1 cells were treated with a dose curve of the warhead, d9A1-1, d9A1-2, d9A1-3, d9A1-4, for 24 hours.
(C) KBM7 cells were treated with varying concentrations of d9A1-2.
HEK293T, LS180 were obtained from ATCC (Manassas, VA, USA), HAP1 WT, HAP1 -/-SLC38A2 (HZGHC001975c003), HAP1 -/-SLC38A9 (HZGHC000777c011) were obtained from Horizon Genomics. Other cell lines utilized here: CAKI (a gift of Georg Winter’s lab), SW620, SW480 (both a gift from Walter Berger’s lab, Medical University Vienna), LOVO, HCT15 (both a gift from Chris Gasche), KBM7 (a gift from Thijn Brummelkamp’s lab), KBM7 -/- CRBN was described in Mayor-Ruiz et al. Cells were cultured, according to the ATCC recommendation in DMEM, RPMI or IMDM medium (Gibco) supplemented with 10% (v/v) FBS and antibiotics (100 U/ml penicillin and […] streptomycin). Knock-in single cell clones of dTAG-HA SLC38A2 HAP1 cell line were generated as previously described. For starvation, culture media was replaced with media without amino acids or FBS.
as §1
MG132, Bortezomib, Pomalidomide were obtained from Selleckchem. MLN4924 was obtained from MedchemExpress. Bafilomycin was obtained from Enzo Life Sciences. dTAG13 was a generous gift from the Nathanael Gray laboratory, Dana Farber Cancer Institute. The d9A1 degrader series (warhead, d9A1-1 to d9A1-4) was synthesized by Wuxi AppTec. All chemicals were dissolved in DMSO (Sigma-Aldrich) and utilized at the concertation described in respective figures.

T1 sequence (P19634 whole entry): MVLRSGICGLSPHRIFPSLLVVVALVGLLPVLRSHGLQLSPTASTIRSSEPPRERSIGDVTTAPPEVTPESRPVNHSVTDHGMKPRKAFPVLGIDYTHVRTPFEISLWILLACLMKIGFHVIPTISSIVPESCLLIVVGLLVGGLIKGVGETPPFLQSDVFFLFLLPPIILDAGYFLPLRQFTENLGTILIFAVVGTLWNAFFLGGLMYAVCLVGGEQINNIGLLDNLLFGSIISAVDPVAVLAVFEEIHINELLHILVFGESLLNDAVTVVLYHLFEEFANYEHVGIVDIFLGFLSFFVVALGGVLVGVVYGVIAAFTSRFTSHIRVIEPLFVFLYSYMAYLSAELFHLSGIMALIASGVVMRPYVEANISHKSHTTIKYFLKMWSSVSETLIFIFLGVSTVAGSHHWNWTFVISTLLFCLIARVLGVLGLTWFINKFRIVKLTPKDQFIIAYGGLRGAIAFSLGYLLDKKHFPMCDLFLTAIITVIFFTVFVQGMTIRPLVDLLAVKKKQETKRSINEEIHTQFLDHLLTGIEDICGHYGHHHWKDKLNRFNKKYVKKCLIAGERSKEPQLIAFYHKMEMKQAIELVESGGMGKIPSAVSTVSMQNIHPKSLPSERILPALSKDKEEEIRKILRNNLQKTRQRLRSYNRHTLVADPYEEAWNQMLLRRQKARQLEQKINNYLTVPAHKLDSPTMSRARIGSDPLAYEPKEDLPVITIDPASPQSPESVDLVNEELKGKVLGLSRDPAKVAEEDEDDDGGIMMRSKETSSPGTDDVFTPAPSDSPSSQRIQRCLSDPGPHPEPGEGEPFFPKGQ

Row | Compound | effect of co-treatment on dTAG7 mediated SLC degradation (chemical rescue) [1] | effect of co-treatment on d9A1-2 driven SLC9A1 degradation (chemical rescue) [2]
1 | CC(C)C[C@H](NC(=O)[C@H](Cc1ccccc1)NC(=O)c1cnccn1)B(O)O [bortezomib] | rescued SLCs degradation | rescued SLCs degradation
2 | Nc1cccc2c1C(=O)N(C1CCC(=O)NC1=O)C2=O (stereo not drawn) [pomalidomide] | prevented measurable SLC degradation | blocked d9A1-2-induced degradation of SLC9A1
3 | NS(=O)(=O)OC[C@@H]1C[C@@H](n2ccc3c(N[C@H]4CCc5ccccc54)ncnc32)C[C@@H]1O [MLN4924] | blocked | abrogated
4 | CO/C1=C\C(C)=C\[C@@H](C)[C@@H](O)[C@@H](C)C/C(C)=C/C=C/[C@H](OC)[C@@H]([C@@H](C)[C@@H](O)[C@H](C)[C@@]2(O)C[C@@H](O)[C@H](C)[C@@H](C(C)C)O2)OC1=O [bafilomycin A1] | degradation appeared unaffected | 
5 | CC(C)C[C@@H](C=O)NC(=O)[C@H](CC(C)C)NC(=O)[C@H](CC(C)C)NC(=O)OCc1ccccc1 [MG132] (Cbz-Leu-Leu-Leu-aldehyde) | rescued SLCs degradation | rescued SLCs degradation
